F/C=C/C(F)(F)F [trans-1,3,3,3-tetrafluoropropene]
Details	mass density [kg/m3]
323.14 K, 8751 kPa, Liquid, Vibrating tube method	1126.4
323.14 K, 9772 kPa, Liquid, Vibrating tube method	1131.9
323.14 K, 12808 kPa, Liquid, Vibrating tube method	1147.2
323.14 K, 13808 kPa, Liquid, Vibrating tube method	1151.8
323.14 K, 14826 kPa, Liquid, Vibrating tube method	1156.4
323.14 K, 15836 kPa, Liquid, Vibrating tube method	1160.8
323.14 K, 16839 kPa, Liquid, Vibrating tube method	1165
323.14 K, 17853 kPa, Liquid, Vibrating tube method	1169.1
323.14 K, 18870 kPa, Liquid, Vibrating tube method	1173.1
323.14 K, 19877 kPa, Liquid, Vibrating tube method	1177
323.14 K, 20888 kPa, Liquid, Vibrating tube method	1180.8
323.14 K, 25937 kPa, Liquid, Vibrating tube method	1198.3
323.14 K, 26941 kPa, Liquid, Vibrating tube method	1201.5
323.14 K, 29967 kPa, Liquid, Vibrating tube method	1210.9
323.15 K, 10784 kPa, Liquid, Vibrating tube method	1137.3
323.15 K, 11798 kPa, Liquid, Vibrating tube method	1142.3
323.15 K, 21901 kPa, Liquid, Vibrating tube method	1184.5
323.15 K, 22914 kPa, Liquid, Vibrating tube method	1188
323.15 K, 23918 kPa, Liquid, Vibrating tube method	1191.5
323.15 K, 24922 kPa, Liquid, Vibrating tube method	1194.9
323.15 K, 27947 kPa, Liquid, Vibrating tube method	1204.7
323.15 K, 28950 kPa, Liquid, Vibrating tube method	1207.8
323.15 K, 30984 kPa, Liquid, Vibrating tube method	1213.9
323.15 K, 31990 kPa, Liquid, Vibrating tube method	1216.9
323.15 K, 33002 kPa, Liquid, Vibrating tube method	1219.7
323.15 K, 34015 kPa, Liquid, Vibrating tube method	1222.6
324.12 K, 770.9 kPa, Gas, isochoric method	38.462
324.12 K, 771 kPa, Gas, isochoric method	38.462
325.11 K, 605.5 kPa, Gas, isochoric method	28.571
333.07 K, 79.2 kPa, Gas, isochoric method	3.311
333.07 K, 288 kPa, Gas, isochoric method	12.346
333.07 K, 488.2 kPa, Gas, isochoric method	21.739
333.08 K, 180.4 kPa, Gas, isochoric method	7.634
333.09 K, 428.5 kPa, Gas, isochoric method	19.231
333.09 K, 624.8 kPa, Gas, isochoric method	28.571
333.09 K, 685.9 kPa, Gas, isochoric method	32.258
333.09 K, 801.3 kPa, Gas, isochoric method	38.462
333.09 K, 801.4 kPa, Gas, isochoric method	38.462
333.09 K, 875.5 kPa, Gas, isochoric method	43.478
333.1 K, 875.5 kPa, Gas, isochoric method	43.478
333.15 K, 10813 kPa, Liquid, Vibrating tube method	1108.1
333.15 K, 15858 kPa, Liquid, Vibrating tube method	1134.8
333.15 K, 17873 kPa, Liquid, Vibrating tube method	1144.2
333.15 K, 18876 kPa, Liquid, Vibrating tube method	1148.5
333.15 K, 19891 kPa, Liquid, Vibrating tube method	1152.9
333.15 K, 20898 kPa, Liquid, Vibrating tube method	1157
333.15 K, 21900 kPa, Liquid, Vibrating tube method	1161
333.15 K, 22913 kPa, Liquid, Vibrating tube method	1165
333.15 K, 23923 kPa, Liquid, Vibrating tube method	1168.8
333.15 K, 24932 kPa, Liquid, Vibrating tube method	1172.5
333.15 K, 25940 kPa, Liquid, Vibrating tube method	1176.1
333.15 K, 26944 kPa, Liquid, Vibrating tube method	1179.7
333.15 K, 27958 kPa, Liquid, Vibrating tube method	1183
333.15 K, 28967 kPa, Liquid, Vibrating tube method	1186.4
333.15 K, 29982 kPa, Liquid, Vibrating tube method	1189.8
333.15 K, 30988 kPa, Liquid, Vibrating tube method	1193
333.15 K, 31995 kPa, Liquid, Vibrating tube method	1196.1
333.15 K, 33006 kPa, Liquid, Vibrating tube method	1199.3
333.15 K, 34013 kPa, Liquid, Vibrating tube method	1202.3
333.16 K, 1380 kPa, Liquid, Vibrating tube method	1031.7
333.16 K, 1683 kPa, Liquid, Vibrating tube method	1035.2
333.16 K, 2698 kPa, Liquid, Vibrating tube method	1046.3
333.16 K, 3721 kPa, Liquid, Vibrating tube method	1056.4
333.16 K, 4755 kPa, Liquid, Vibrating tube method	1065.6
333.16 K, 5766 kPa, Liquid, Vibrating tube method	1073.9
333.16 K, 6767 kPa, Liquid, Vibrating tube method	1081.5
333.16 K, 7784 kPa, Liquid, Vibrating tube method	1088.8
333.16 K, 8801 kPa, Liquid, Vibrating tube method	1095.7
333.16 K, 9801 kPa, Liquid, Vibrating tube method	1102
333.16 K, 11831 kPa, Liquid, Vibrating tube method	1114
333.16 K, 12847 kPa, Liquid, Vibrating tube method	1119.5
333.16 K, 13849 kPa, Liquid, Vibrating tube method	1124.8
333.16 K, 14855 kPa, Liquid, Vibrating tube method	1129.9
333.16 K, 16870 kPa, Liquid, Vibrating tube method	1139.6
343.03 K, 81.6 kPa, Gas, isochoric method	3.3
343.03 K, 297.5 kPa, Gas, isochoric method	12.346
343.04 K, 81.7 kPa, Gas, isochoric method	3.3
343.04 K, 186.1 kPa, Gas, isochoric method	7.634
343.04 K, 505.6 kPa, Gas, isochoric method	21.739
343.04 K, 648.5 kPa, Gas, isochoric method	28.571
343.05 K, 443.5 kPa, Gas, isochoric method	19.231
343.06 K, 713 kPa, Gas, isochoric method	32.258
343.06 K, 713.1 kPa, Gas, isochoric method	32.258
343.06 K, 913.4 kPa, Gas, isochoric method	43.478
343.06 K, 913.5 kPa, Gas, isochoric method	43.478
343.15 K, 834.9 kPa, Gas, isochoric method	38.462
343.15 K, 835 kPa, Gas, isochoric method	38.462
343.15 K, 1625 kPa, Liquid, Vibrating tube method	984.2
343.15 K, 2607 kPa, Liquid, Vibrating tube method	999.1
343.15 K, 3648 kPa, Liquid, Vibrating tube method	1012.8
343.15 K, 4690 kPa, Liquid, Vibrating tube method	1024.7
343.15 K, 5696 kPa, Liquid, Vibrating tube method	1035.1
343.15 K, 6697 kPa, Liquid, Vibrating tube method	1044.5
343.15 K, 7717 kPa, Liquid, Vibrating tube method	1053.2
343.15 K, 8731 kPa, Liquid, Vibrating tube method	1061.4
